In patent US12290519B2, “Anti-inflammatory coupling compound drug, and preparation method therefor and use thereof” (COVAL BIOPHARMA (SHANGHAI) CO., LTD., priority 2021, dated 2025):

Assay: Hydrolysis rate / drug release rate of the compounds (release of JAK inhibitor, HPLC)
Assay type: physicochemical
Conditions: % release of JAK inhibitor from sample in acetonitrile/water=7/3 (v/v), 37° C. constant temperature shaker, sampled days 1-4, HPLC
Procedure, shortened: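 HPLC quantified parent JAK inhibitor freed from each compound, calibrated with 0.0002–0.08 mg/mL standards. Samples in acetonitrile/water 7/3 were kept sealed at 37° C and analysed at day 0 and on days 1 to 4. % release was computed from sample weight, curve slope/intercept and the molecular-weight ratio.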

First: CNS(=O)(=O)CC1CCC(N(C)c2ncnc3c2ccn3COC(=O)C(C)c2ccc(-c3ccccc3)c(F)c2)CC1 (stereo not drawn) [Ex. 113, (4-(Methyl ((trans)-4-((N-methylsulfamoyl)methyl)cyclohexyl)amino)-7H-pyrrolo [2,3-d]pyrimidin-7-yl) methyl 2-(2-fluoro-[1, 1′-biphenyl]-4-yl) propanoate]
Second: CNS(=O)(=O)CC1CCC(N(C)c2ncnc3c2ccn3C(=O)C(C)c2ccc(-c3ccccc3)c(F)c2)CC1 (stereo not drawn) [Ex. 36, 1-((Trans)-4-((7-(2-(2-fluoro-[1, 1′-biphenyl]-4-yl)propanoyl)-7H-pyrrolo [2,3-d]pyrimidin-4-yl) (methyl)amino)cyclohexyl)-N-methyl methanesulfonamide]
The “Release Rate (%/day)” value of the first is lower: 0.42 %/day for the first, 14.98 %/day for the second.

First: CC(C)Cc1ccc([C@H](C)C(=O)n2ccc3c(N4CC[C@]5(C4)[C@@H](C)CN5C(=O)CC#N)ncnc32)cc1 [Ex. 140, 3-((3S, 4R)-6-(7-((S)-2-(4-isobutylphenyl)propanoyl)-7H-pyrrolo [2,3-d]pyrimidin-4-yl)-3-methyl-1,6-diazaspiro [3.4]oct-1-yl)-3-oxopropanenitrile]
Second: CC[C@@H]1CN(C(=O)NCC(F)(F)F)C[C@@H]1c1cnc2cnc3c(ccn3C(=O)[C@@H](C)c3ccc(CC(C)C)cc3)n12 [Ex. 123, (3S, 4R)-3-ethyl-4-(3-((S)-2-(4-isobutylphenyl)propanoyl)-3H-imidazo [1,2-a]pyrrolo [2,3-e]pyrazin-8-yl)-N-(2,2,2-trifluoroethyl) pyrrolidine-1-carboxamide]
The “Release Rate (%/day)” value of the first is higher: 8.10 %/day for the first, 3.02 %/day for the second.

Compared with `CCc1cccc2c3c([nH]c12)C(CC)(CC(=O)OCn1ccc2c(N(C)[C@H]4CC[C@H](CS(=O)(=O)NC)CC4)ncnc21)OCC3` (stereo partly drawn) [Ex. 94, (4-(Methyl ((trans)-4-((N-methylsulfamoyl)methyl)cyclohexyl)amino)-7H-pyrrolo [2,3-d]pyrimidin-7-yl) methyl 2-(1,8-diethyl-1,3,4,9-tetrahydropyran [3,4-b]indol-1-yl) acetate], `CNS(=O)(=O)C[C@H]1CC[C@H](N(C)c2ncnc3c2ccn3COC(=O)C(C)c2cccc(C(=O)c3ccccc3)c2)CC1` (stereo partly drawn) [Ex. 90, (4-(Methyl ((trans)-4-((N-methylsulfamoyl)methyl)cyclohexyl)amino)-7H-pyrrolo [2,3-d]pyrimidin-7-yl) methyl 2-(3-benzoylphenyl) propanoate] is lower in “Release Rate (%/day)” value: 0.72 %/day for the first, 0.35 %/day for the second.

Going from `CCS(=O)(=O)N1CC(CC#N)(n2cc(-c3ncnc4c3ccn4C(=O)C(C)c3cccc(Oc4ccccc4)c3)cn2)C1` (stereo not drawn) [Ex. 21, 2-(1-(Ethylsulfonyl)-3-(4-(7-(2-(3-phenoxyphenyl)propanoyl)-7H-pyrrolo [2,3-d]pyrimidin-4-yl)-1H-pyrazol-1-yl)azetidin-3-yl) acetonitrile] to `CCS(=O)(=O)N1CC(CC#N)(n2cc(-c3ncnc4c3ccn4C(=O)C(C)c3ccc(-c4ccccc4)c(F)c3)cn2)C1` (stereo not drawn) [Ex. 20, 2-(1-(ethylsulfonyl)-3-(4-(7-(2-(2-fluoro-[1, 1′-biphenyl]-4-yl)propanoyl)-7H-pyrrolo [2,3-d]pyrimidin-4-yl)-1H-pyrazol-1-yl)azetidin-3-yl) acetonitrile], the “Release Rate (%/day)” value rises from 4.6 %/day to 5.06 %/day.

Compared with `Cc1c(Cl)cccc1Nc1ccccc1C(=O)OCn1ccc2c(-c3cnn([C@H](CC#N)C4CCCC4)c3)ncnc21` [Ex. 107, (R)-(4-(1-(2-cyano-1-cyclopentylethyl)-1H-pyrazol-4-yl)-7H-pyrrolo [2,3-d]pyrimidin-7-yl) methyl 2-((3-chloro-2-methylphenyl)amino) benzoate], `Cc1cccc(Nc2ccccc2C(=O)n2ccc3c(-c4cnn([C@H](CC#N)C5CCCC5)c4)ncnc32)c1C` [Ex. 82, (R)-3-cyclopentyl-3-(4-(7-(2-((2,3-dimethylphenyl)amino)benzoyl)-7H-pyrrolo [2,3-d]pyrimidin-4-yl)-1H-pyrazol-1-yl) propanenitrile] is higher in “Release Rate (%/day)” value: 0.22 %/day for the first, 0.43 %/day for the second.

Going from `C[C@@H]1CCN(C(=O)CC#N)C[C@@H]1N(C)c1ncnc2c1ccn2C(=O)Cc1ccccc1Nc1c(Cl)cccc1Cl` [Ex. 9] to `N#CC[C@H](C1CCCC1)n1cc(-c2ncnc3c2ccn3C(=O)Cc2ccccc2Nc2c(Cl)cccc2Cl)cn1` [Ex. 75, (R)-3-cyclopentyl-3-(4-(7-(2-(2-((2,6-dichlorophenyl)amino)phenyl)acetyl)-7H-pyrrolo [2,3-d]pyrimidin-4-yl)-1H-pyrazol-1-yl) propanenitrile], the “Release Rate (%/day)” value falls from 13.49 %/day to 10.38 %/day.

Compared with `CC(C(=O)OCn1ccc2c(-c3cnn([C@H](CC#N)C4CCCC4)c3)ncnc21)c1ccc(-c2ccccc2)c(F)c1` (stereo partly drawn) [Ex. 100, (4-(1-((R)-2-cyano-1-cyclopentylethyl)-1H-pyrazol-4-yl)-7H-pyrrolo [2,3-d]pyrimidin-7-yl) methyl 2-(2-fluoro-[1, 1′-biphenyl]-4-yl) propanoate], `CC(C)(C)OC(=O)N[C@H](C(=O)n1ccc2c(-c3cnn([C@H](CC#N)C4CCCC4)c3)ncnc21)c1ccccc1` [Ex. 80, Tert-butyl ((S)-2-(4-(1-((R)-2-cyano-1-cyclopentylethyl)-1H-pyrazol-4-yl)-7H-pyrrolo [2,3-d]pyrimidin-7-yl)-2-oxo-1-phenylethyl) carbamate] is higher in “Release Rate (%/day)” value: 0.24 %/day for the first, 27.29 %/day for the second.

Compared with `CC(C(=O)OCn1ccc2c(N(C)[C@H]3CN(C(=O)CC#N)CC[C@H]3C)ncnc21)c1cccc(C(=O)c2ccccc2)c1` (stereo partly drawn) [Ex. 49, (4-(((3R, 4R)-1-(2-cyanoacetyl)-4-methylpiperidin-3-yl) (methyl)amino)-7H-pyrrolo [2,3-d]pyrimidin-7-yl) methyl 2-(3-benzoylphenyl) propanoate], `C[C@@H]1CCN(C(=O)CC#N)C[C@@H]1N(C)c1ncnc2c1ccn2COC(=O)[C@@H](NC(=O)OC(C)(C)C)c1ccccc1` [Ex. 64, (4-(((3R, 4R)-1-(2-cyanoacetyl)-4-methylpiperidin-3-yl) (methyl)amino)-7H-pyrrolo [2,3-d]pyrimidin-7-yl) methyl (S)-2-((tert-butoxycarbonyl)amino)-2-phenylacetate] is higher in “Release Rate (%/day)” value: 0.11 %/day for the first, 0.88 %/day for the second.

Going from `CCS(=O)(=O)N1CC(CC#N)(n2cc(-c3ncnc4c3ccn4COC(=O)c3ccccc3Nc3cccc(C)c3C)cn2)C1` [Ex. 83, Methyl (4-(1-(3-(cyanomethyl)-1-(ethylsulfonyl)azetidin-3-yl)-1H-pyrazol-4-yl)-7H-pyrrolo [2,3-d]pyrimidin-7-yl) 2-((2,3-dimethylphenyl)amino) benzoate] to `CCS(=O)(=O)N1CC(CC#N)(n2cc(-c3ncnc4c3ccn4COC(=O)C(C)c3cccc(C(=O)c4ccccc4)c3)cn2)C1` (stereo not drawn) [Ex. 62, 4-(1-(3-(cyanomethyl)-1-(ethylsulfonyl)azetidin-3-yl)-1H-pyrazol-4-yl)-7H-pyrrolo [2,3-d] pyrimidin-7-yl) methyl 2-(3-benzoylphenyl) propanoate], the “Release Rate (%/day)” value rises from 0.003 %/day to 0.01 %/day.

First: CCS(=O)(=O)N1CC(CC#N)(n2cc(-c3ncnc4c3ccn4COC(=O)Cc3c(C)n(C(=O)c4ccc(Cl)cc4)c4ccc(OC)cc34)cn2)C1 [Ex. 73, Methyl (4-(1-(3-(cyanomethyl)-1-(ethylsulfonyl)azetidin-3-yl)-1H-pyrazol-4-yl)-7H-pyrrolo [2,3-d]pyrimidin-7-yl) 2-(1-(4-chlorobenzoyl)-5-methoxy-2-methyl-1H-indol-3-yl) acetate]
Second: COc1ccc2c(c1)c(CC(=O)OCn1ccc3c(N(C)[C@H]4CN(C(=O)CC#N)CC[C@H]4C)ncnc31)c(C)n2C(=O)c1ccc(Cl)cc1 [Ex. 55, (4-(((3R, 4R)-1-(2-cyanoacetyl)-4-methylpiperidin-3-yl) (methyl)amino)-7H-pyrrolo [2,3-d]pyrimidin-7-yl) methyl 2-(1-(4-chlorobenzoyl)-5-methoxy-2-methyl-1H-indol-3-yl) acetate]
The “Release Rate (%/day)” value of the first is higher: 0.2 %/day for the first, 0.16 %/day for the second.

Compared with `CCC(C(=O)OCn1ccc2c(N(C)C3CCC(CS(=O)(=O)NC)CC3)ncnc21)c1ccc(N2Cc3ccccc3C2=O)cc1` (stereo not drawn) [Ex. 117, (4-(Methyl ((trans)-4-((N-methylsulfamoyl)methyl)cyclohexyl)amino)-7H-pyrrolo [2,3-d]pyrimidin-7-yl) methyl 2-(4-(1-)oxoisoindolin-2-yl) phenyl) butanoate], `CCC(C(=O)OCn1ccc2c(-c3cnn(C4(CC#N)CN(S(=O)(=O)CC)C4)c3)ncnc21)c1ccc(N2Cc3ccccc3C2=O)cc1` (stereo not drawn) [Ex. 76, Methyl (4-(1-(3-(cyanomethyl)-1-(ethylsulfonyl)azetidin-3-yl)-1H-pyrazol-4-yl)-7H-pyrrolo [2,3-d]pyrimidin-7-yl) 2-(4-(1-oxoisoindolin-2-yl)phenyl) butanoate] is lower in “Release Rate (%/day)” value: 0.08 %/day for the first, 0.05 %/day for the second.

Compared with `CCS(=O)(=O)N1CC(CC#N)(n2cc(-c3ncnc4c3ccn4C(=O)[C@@H](C)c3ccc4cc(OC)ccc4c3)cn2)C1` [Ex. 18, (S)-2-(1-(ethylsulfonyl)-3-(4-(7-(2-(6-methoxynaphthalen-2-yl)propanoyl)-7H-pyrrolo [2,3-d]pyrimidin-4-yl)-1H-pyrazol-1-yl)azetidin-3-yl) acetonitrile], `CCc1cccc2c3c([nH]c12)C(CC)(CC(=O)n1ccc2c(-c4cnn([C@H](CC#N)C5CCCC5)c4)ncnc21)OCC3` (stereo partly drawn) [Ex. 45, (3R)-3-cyclopentyl-3-(4-(7-(2-(1,8-diethyl-1,3,4,9-tetrahydropyran [3,4-b]indol-1-yl)acetyl)-7H-pyrrolo [2,3-d]pyrimidin-4-yl)-1H-pyrazol-1-yl) propanenitrile] is lower in “Release Rate (%/day)” value: 2.97 %/day for the first, 1.93 %/day for the second.
